Assay results as given in US9422359B2, “GPCR fusion protein containing an N-terminal autonomously folding stable domain, and crystals of the same” (The Board of Trustees of the Leland Stanford Junior …, priority 2011, dated 2016).
One block for each compound: values may come before it.

How the values were obtained:
R:G complex = biological target: T1, R:G complex (Bos taurus, UniProt P04896); assay: Analytical gel filtration, stability of the R:G complex
T1 construct: HA signal peptide (N); made in house; host or cells: receptor: Sf9 insect cells (baculovirus); Gs subunits: HighFive insect cells
Description: […]. Nature 2011 469, 175-180). To maintain the high-affinity nucleotide-free state of the complex, apyrase (25 mU/ml, NEB) was added after 90 min to hydrolyze residual GDP released from G ? supon binding to the receptor. GMP resulting from hydrolysis of GDP by apyrase has very poor affinity for the G protein in the complex.
At this stage the mixture contains the R:G complex, non-functional Gs, and an excess of β2AR. […] To prevent cysteine bridge-mediated aggregation of R:G complexes, 100 μM TCEP was added to the eluted protein prior to concentrating it with a 50 kDa MWCO Millipore concentrator. Of note, it was discovered later that crystal growth improved at even higher TCEP concentrations (above 1 mM) compared to 100 μM TCEP, and that the integrity of the R:G complex in MNG-3 was stable to 10 mM TCEP as measured by gel filtration analysis (FIG. 21C). In contrast, DDM-solubilized β2AR loses its ability to bind the high-affinity antagonist ^3H-dihydroalprenolol in 10 mM TCEP (data not shown), probably due to disruption of extracellular disulfide bonds. Iodoacetamide could not be used to block reactive cysteines on Gs alpha and beta subunits as it caused dissociation of the R:G complex (figure S9b). […] Peak fractions were pooled (FIG. 17b) and concentrated to approximately 90 mg ml^−1 with a 100 kDa MWCO Viva-spin concentrator and analyzed by SDS-PAGE/Coomassie brilliant blue staining (FIG. 17a) and gel filtration (FIG. 17c). To confirm a pure, homogeneous, and dephosphorylated preparation, the R:G complex was routinely analyzed by ion exchange chromatography (FIG. 17d).

T4L-β2AR = biological target: T2, T4L-β2AR (Homo sapiens, UniProt P07550, M96T/M98T/N187E); assay: Ligand binding affinity of T4L-β2AR with M96T, M98T mutations
T2 construct: HA signal peptide (N, cleaved yes); made in house; host or cells: Sf9 insect cells, recombinant baculovirus
From the text: To increase the probability of obtaining crystals of the R:G complex two strategies were used to increase the polar surface area on the extracellular side of the receptor. […] The PNGaseF-inaccessible glycosylation site of the β2AR at N187 was mutated to Glu.

T1 sequence (P04896 1-380 isoform P04896-2, one chain of several): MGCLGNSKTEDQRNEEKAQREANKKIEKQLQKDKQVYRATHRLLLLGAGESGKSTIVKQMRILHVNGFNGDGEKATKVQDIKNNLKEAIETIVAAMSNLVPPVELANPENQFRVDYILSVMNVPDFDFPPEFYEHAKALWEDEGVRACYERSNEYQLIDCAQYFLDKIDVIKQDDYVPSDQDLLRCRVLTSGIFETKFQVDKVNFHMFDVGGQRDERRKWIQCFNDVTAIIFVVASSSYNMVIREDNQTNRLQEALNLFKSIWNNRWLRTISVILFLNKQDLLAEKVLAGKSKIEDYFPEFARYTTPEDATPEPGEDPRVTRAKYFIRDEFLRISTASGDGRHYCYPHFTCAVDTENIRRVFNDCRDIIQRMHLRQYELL

Structure (SMILES): Nc1nc2c(ncn2[C@@H]2O[C@H](COP(=O)(O)OP(=O)(O)O)[C@@H](O)[C@H]2O)c(=O)[nH]1 [GDP]
effect on the R:G complex (R:G complex; nucleotides at 0.1 mM): cause dissociation of the R:G complex

effect on the R:G complex (R:G complex; nucleotides at 0.1 mM): cause dissociation of the R:G complex
Structure (SMILES): Nc1nc2c(ncn2[C@@H]2O[C@H](COP(=O)(O)OP(=O)(O)OP(O)(O)=S)[C@@H](O)[C@H]2O)c(=O)[nH]1 [GTPγS]

Structure (SMILES): CCCc1ccccc1OCC(O)CNC(C)C (centres unmarked) [[3H]-Dihydroalprenolol, dihydroalprenolol]
effect of the threonine mutations (M96T, M98T) on ligand binding affinity (T4L-β2AR): did not affect ligand binding affinity

Structure (SMILES): NC(=O)CI [iodoacetamide]
effect on the R:G complex (R:G complex; 5 mM for 20 hrs at 20° C.): led to dissociation of the complex

Structure (SMILES): O=P(O)(O)OP(=O)(O)O [pyrophosphate]
effect on the R:G complex (R:G complex; phosphates used at 5 mM): do not cause disruption of the complex
